Reference: PubChem BioAssay (NCI)
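The compound was tested at five concentrations on cells cultured in 96-well plates, with a 48-hour exposure period. GI50 is the concentration that inhibits growth by half. TGI: total growth inhibition.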

Key:
Experiment in all cases: NCI-60 cell line screen, 48 h
786-0 renal = system: 786-0 renal
A498 renal = system: A498 renal
A549 NSCLC = system: A549 NSCLC
ACHN renal = system: ACHN renal
BT-549 breast = system: BT-549 breast
CAKI-1 renal = system: CAKI-1 renal
CCRF-CEM leukemia = system: CCRF-CEM leukemia
COLO 205 colon = system: COLO 205 colon
DU-145 prostate = system: DU-145 prostate
EKVX NSCLC = system: EKVX NSCLC
HCC-2998 colon = system: HCC-2998 colon
HCT-116 colon = system: HCT-116 colon
HCT-15 colon = system: HCT-15 colon
HL-60(TB) leukemia = system: HL-60(TB) leukemia
HOP-62 NSCLC = system: HOP-62 NSCLC
HOP-92 NSCLC = system: HOP-92 NSCLC
HS 578T breast = system: HS 578T breast
HT29 colon = system: HT29 colon
K-562 leukemia = system: K-562 leukemia
KM12 colon = system: KM12 colon
LOX IMVI melanoma = system: LOX IMVI melanoma
M14 melanoma = system: M14 melanoma
MALME-3M melanoma = system: MALME-3M melanoma
MCF7 breast = system: MCF7 breast
MDA-MB-231 breast = system: MDA-MB-231 breast
MDA-MB-435 = system: MDA-MB-435
MOLT-4 leukemia = system: MOLT-4 leukemia
NCI-H226 lung = system: NCI-H226 lung
NCI-H23 lung = system: NCI-H23 lung
NCI-H460 lung = system: NCI-H460 lung
NCI-H522 lung = system: NCI-H522 lung
NCI/ADR-RES ovarian = system: NCI/ADR-RES ovarian
OVCAR-3 ovarian = system: OVCAR-3 ovarian
OVCAR-4 ovarian = system: OVCAR-4 ovarian
OVCAR-5 ovarian = system: OVCAR-5 ovarian
OVCAR-8 ovarian = system: OVCAR-8 ovarian
PC-3 prostate = system: PC-3 prostate
RPMI-8226 leukemia = system: RPMI-8226 leukemia
RXF 393 renal = system: RXF 393 renal
SF-268 CNS = system: SF-268 CNS
SF-295 CNS = system: SF-295 CNS
SF-539 CNS = system: SF-539 CNS
SK-MEL-2 melanoma = system: SK-MEL-2 melanoma
SK-MEL-28 melanoma = system: SK-MEL-28 melanoma
SK-MEL-5 melanoma = system: SK-MEL-5 melanoma
SK-OV-3 ovarian = system: SK-OV-3 ovarian
SN12C renal = system: SN12C renal
SNB-19 CNS = system: SNB-19 CNS
SW-620 colon = system: SW-620 colon
TK-10 renal = system: TK-10 renal
U251 CNS = system: U251 CNS
UACC-257 melanoma = system: UACC-257 melanoma
UACC-62 melanoma = system: UACC-62 melanoma
UO-31 renal = system: UO-31 renal
SNB-75 CNS = system: SNB-75 CNS

SMILES: O=C1c2cc3c(cc2-c2c1c1ccc(F)cc1c(=O)n2CCCNCCO)OCO3
- GI50 (786-0 renal): 0.0335 µM
- TGI (786-0 renal): 0.776 µM
- GI50 (A498 renal): 0.137 µM
- TGI (A498 renal): 0.491 µM
- GI50 (A549 NSCLC): 0.0339 µM
- TGI (A549 NSCLC): 0.188 µM
- GI50 (ACHN renal): 0.0247 µM
- TGI (ACHN renal): 0.104 µM
- GI50 (BT-549 breast): 0.238 µM
- TGI (BT-549 breast): 1.34 µM
- GI50 (CAKI-1 renal): 0.0628 µM
- TGI (CAKI-1 renal): 1.44 µM
- GI50 (CCRF-CEM leukemia): 0.0301 µM
- TGI (CCRF-CEM leukemia): 1.27 µM
- GI50 (COLO 205 colon): 0.0423 µM
- TGI (COLO 205 colon): 0.81 µM
- GI50 (DU-145 prostate): 0.0329 µM
- TGI (DU-145 prostate): 1.09 µM
- GI50 (EKVX NSCLC): 0.211 µM
- TGI (EKVX NSCLC): 1.21 µM
- GI50 (HCC-2998 colon): 0.0537 µM
- TGI (HCC-2998 colon): 0.272 µM
- GI50 (HCT-116 colon): 0.019 µM
- TGI (HCT-116 colon): 0.196 µM
- GI50 (HCT-15 colon): 0.0277 µM
- TGI (HCT-15 colon): 0.27 µM
- GI50 (HL-60(TB) leukemia): 0.0291 µM
- TGI (HL-60(TB) leukemia): 0.198 µM
- GI50 (HOP-62 NSCLC): 0.0366 µM
- TGI (HOP-62 NSCLC): 0.496 µM
- GI50 (HOP-92 NSCLC): 0.198 µM
- TGI (HOP-92 NSCLC): 0.845 µM
- GI50 (HS 578T breast): 0.381 µM
- TGI (HS 578T breast): 2.68 µM
- GI50 (HT29 colon): 0.0279 µM
- TGI (HT29 colon): 0.152 µM
- GI50 (K-562 leukemia): 0.0373 µM
- TGI (K-562 leukemia): 1.36 µM
- GI50 (KM12 colon): 0.0646 µM
- TGI (KM12 colon): 1.06 µM
- GI50 (LOX IMVI melanoma): 0.0139 µM
- TGI (LOX IMVI melanoma): 0.0582 µM
- GI50 (M14 melanoma): 0.0367 µM
- TGI (M14 melanoma): 1.09 µM
- GI50 (MALME-3M melanoma): 0.102 µM
- TGI (MALME-3M melanoma): 0.729 µM
- TGI (MCF7 breast): 0.166 µM
- GI50 (MDA-MB-231 breast): 0.255 µM
- TGI (MDA-MB-231 breast): 1.06 µM
- GI50 (MDA-MB-435): 0.0674 µM
- TGI (MDA-MB-435): 0.955 µM
- GI50 (MOLT-4 leukemia): 0.024 µM
- TGI (MOLT-4 leukemia): 1.24 µM
- GI50 (NCI-H226 lung): 0.0411 µM
- TGI (NCI-H226 lung): 0.192 µM
- GI50 (NCI-H23 lung): 0.0304 µM
- TGI (NCI-H23 lung): 0.147 µM
- GI50 (NCI-H460 lung): 0.0219 µM
- TGI (NCI-H460 lung): 0.204 µM
- GI50 (NCI-H522 lung): 0.014 µM
- TGI (NCI-H522 lung): 0.106 µM
- GI50 (NCI/ADR-RES ovarian): 0.0374 µM
- TGI (NCI/ADR-RES ovarian): 1.08 µM
- GI50 (OVCAR-3 ovarian): 0.0751 µM
- TGI (OVCAR-3 ovarian): 0.826 µM
- GI50 (OVCAR-4 ovarian): 0.194 µM
- TGI (OVCAR-4 ovarian): 1.33 µM
- GI50 (OVCAR-5 ovarian): 0.242 µM
- TGI (OVCAR-5 ovarian): 1.23 µM
- GI50 (OVCAR-8 ovarian): 0.0538 µM
- TGI (OVCAR-8 ovarian): 0.356 µM
- GI50 (PC-3 prostate): 0.144 µM
- TGI (PC-3 prostate): 1.47 µM
- GI50 (RPMI-8226 leukemia): 0.0577 µM
- TGI (RPMI-8226 leukemia): 0.571 µM
- GI50 (RXF 393 renal): 0.1 µM
- TGI (RXF 393 renal): 0.322 µM
- GI50 (SF-268 CNS): 0.0537 µM
- TGI (SF-268 CNS): 1.16 µM
- GI50 (SF-295 CNS): 0.0224 µM
- TGI (SF-295 CNS): 0.114 µM
- GI50 (SF-539 CNS): 0.0407 µM
- TGI (SF-539 CNS): 0.324 µM
- GI50 (SK-MEL-2 melanoma): 0.273 µM
- TGI (SK-MEL-2 melanoma): 0.716 µM
- GI50 (SK-MEL-28 melanoma): 0.329 µM
- TGI (SK-MEL-28 melanoma): 1.77 µM
- GI50 (SK-MEL-5 melanoma): 0.109 µM
- TGI (SK-MEL-5 melanoma): 0.232 µM
- GI50 (SK-OV-3 ovarian): 0.0525 µM
- TGI (SK-OV-3 ovarian): 0.566 µM
- GI50 (SN12C renal): 0.108 µM
- TGI (SN12C renal): 0.861 µM
- GI50 (SNB-19 CNS): 0.0431 µM
- TGI (SNB-19 CNS): 1.16 µM
- GI50 (SW-620 colon): 0.0218 µM
- TGI (SW-620 colon): 1 µM
- GI50 (TK-10 renal): 0.148 µM
- TGI (TK-10 renal): 0.487 µM
- GI50 (U251 CNS): 0.0225 µM
- TGI (U251 CNS): 0.102 µM
- GI50 (UACC-257 melanoma): 0.123 µM
- TGI (UACC-257 melanoma): 0.853 µM
- GI50 (UACC-62 melanoma): 0.0281 µM
- TGI (UACC-62 melanoma): 0.174 µM
- GI50 (UO-31 renal): 0.0292 µM
- TGI (UO-31 renal): 0.148 µM

SMILES: OCCCCCNCc1cc2cc3c(cc2c2cc(OCc4ccccc4)ccc12)OCO3
- GI50 (786-0 renal): 1.61 µM
- TGI (786-0 renal): 2.96 µM
- GI50 (A498 renal): 3.57 µM
- TGI (A498 renal): 14.2 µM
- GI50 (A549 NSCLC): 1.55 µM
- TGI (A549 NSCLC): 2.89 µM
- GI50 (ACHN renal): 1.58 µM
- TGI (ACHN renal): 2.93 µM
- GI50 (BT-549 breast): 1.62 µM
- TGI (BT-549 breast): 2.98 µM
- GI50 (CAKI-1 renal): 1.77 µM
- TGI (CAKI-1 renal): 3.74 µM
- GI50 (CCRF-CEM leukemia): 2.52 µM
- TGI (CCRF-CEM leukemia): 6.11 µM
- GI50 (DU-145 prostate): 1.54 µM
- TGI (DU-145 prostate): 2.88 µM
- GI50 (EKVX NSCLC): 1.75 µM
- TGI (EKVX NSCLC): 3.28 µM
- GI50 (HCT-116 colon): 1.46 µM
- TGI (HCT-116 colon): 2.81 µM
- GI50 (HCT-15 colon): 1.59 µM
- TGI (HCT-15 colon): 3.05 µM
- GI50 (HL-60(TB) leukemia): 1.52 µM
- TGI (HL-60(TB) leukemia): 3.65 µM
- GI50 (HOP-62 NSCLC): 1.72 µM
- TGI (HOP-62 NSCLC): 3.23 µM
- GI50 (HOP-92 NSCLC): 1.23 µM
- TGI (HOP-92 NSCLC): 2.84 µM
- GI50 (HS 578T breast): 1.79 µM
- TGI (HS 578T breast): 3.56 µM
- GI50 (HT29 colon): 1.5 µM
- TGI (HT29 colon): 3 µM
- GI50 (K-562 leukemia): 1.68 µM
- TGI (K-562 leukemia): 4.11 µM
- GI50 (KM12 colon): 1.62 µM
- TGI (KM12 colon): 2.97 µM
- GI50 (M14 melanoma): 1.94 µM
- TGI (M14 melanoma): 3.45 µM
- GI50 (MALME-3M melanoma): 1.66 µM
- TGI (MALME-3M melanoma): 3.1 µM
- GI50 (MDA-MB-231 breast): 1.3 µM
- TGI (MDA-MB-231 breast): 2.56 µM
- GI50 (MDA-MB-435): 1.66 µM
- TGI (MDA-MB-435): 3.02 µM
- GI50 (MOLT-4 leukemia): 1.41 µM
- TGI (MOLT-4 leukemia): 4.55 µM
- GI50 (NCI-H226 lung): 1.85 µM
- TGI (NCI-H226 lung): 3.41 µM
- GI50 (OVCAR-3 ovarian): 1.68 µM
- TGI (OVCAR-3 ovarian): 3.14 µM
- GI50 (OVCAR-4 ovarian): 1.87 µM
- TGI (OVCAR-4 ovarian): 3.59 µM
- GI50 (OVCAR-8 ovarian): 1.48 µM
- TGI (OVCAR-8 ovarian): 2.8 µM
- GI50 (RXF 393 renal): 1.04 µM
- TGI (RXF 393 renal): 2.2 µM
- GI50 (SF-295 CNS): 1.59 µM
- TGI (SF-295 CNS): 3 µM
- GI50 (SF-539 CNS): 1.64 µM
- TGI (SF-539 CNS): 3 µM
- GI50 (SK-MEL-2 melanoma): 1.74 µM
- TGI (SK-MEL-2 melanoma): 3.24 µM
- GI50 (SK-MEL-28 melanoma): 1.82 µM
- TGI (SK-MEL-28 melanoma): 3.23 µM
- GI50 (SK-MEL-5 melanoma): 1.48 µM
- TGI (SK-MEL-5 melanoma): 2.8 µM
- GI50 (SK-OV-3 ovarian): 3.02 µM
- TGI (SK-OV-3 ovarian): 7.94 µM
- GI50 (SN12C renal): 3.4 µM
- TGI (SN12C renal): 13.4 µM
- GI50 (SNB-75 CNS): 1.72 µM
- TGI (SNB-75 CNS): 3.09 µM
- GI50 (SW-620 colon): 1.39 µM
- TGI (SW-620 colon): 2.69 µM
- GI50 (TK-10 renal): 1.55 µM
- TGI (TK-10 renal): 2.95 µM
- GI50 (U251 CNS): 1.65 µM
- TGI (U251 CNS): 3.01 µM
- GI50 (UACC-257 melanoma): 1.63 µM
- TGI (UACC-257 melanoma): 3.15 µM
- GI50 (UACC-62 melanoma): 1.71 µM
- TGI (UACC-62 melanoma): 3.08 µM
- GI50 (UO-31 renal): 1.66 µM
- TGI (UO-31 renal): 3.27 µM
